Activity calls are given as the source filed them. The calls are words filed in the database; no cut-off is given here. *1 amine or outer side, *2 acyl side, *3 side chain or, on linkers, in order; H or OH if unused. Where a SMILES comes first, the peptide text is derived from it. Bridges are numbered along the chain shown (N, C = ends). Roman numbers before positions name the chains, in order. [ ]: non-standard residue; d: D form. The star is where a group is joined. Hexanoyl(6-succinimido-3yl) = O=C1CC([*:1])C(=O)N1CCCCCC(=O)[*:2]; Dolaproine = CO[C@@H]([C@@H]1CCCN1)[C@@H](C)C(=O)O; Dil = CC[C@H](C)[C@H](NC)[C@@H](CC(=O)O)OC; PABC = O=C(OCc1ccc(N[*:1])cc1)[*:2]; X1 = C[C@@H](N*)[C@@H](O)c1ccccc1; Cit = NC(=O)NCCC[C@H](N)C(=O)O; NMeV = CN[C@H](C(=O)O)C(C)C

The test system of data set [1] is NUGC-4. As to the kind of experiment: Induction of apoptosis in KK-LC-1-positive human NUGC-4 cells at 100 nM incubated for 24 hrs followed by exposure to 2 Gy gamma irradiation by AnnexinV/PI-staining based flow cytometry. It is filed as functional, cell-based.
Data set [2] can be described thus: Toxicity in male BALB/c nude mouse xenografted with KK-LC-1-positive human NUGC-4 cells assessed as median survival time at 0.3 mg/kg, iv administered once a week for 3 weeks followed by exposure to 2 Gy gamma irradiation for 2 consecutive days once a week for 3 weeks measured after 47 days. It is filed as organism-based. Conditions: in vivo, 504 h. For orientation: A xenograft is tissue or cells of one species grown in another, often human tumour cells in immunodeficient mice.

In data set [3] the test system is NUGC-4. As to the kind of experiment: Cell cycle arrest in KK-LC-1-positive human NUGC-4 cells assessed as accumulation at G2/M phase at 20 nM measured after 24 hrs by propidium iodide staining based flow cytometric analysis (reference value: 21.5 +/- 0.7 %). The class given is functional. Background: In flow cytometry, cells or beads pass a laser one at a time.

Data set [4] has as its system MKN-45. As to the kind of experiment: Antitumor activity against KK-LC-1-positive human MKN-45 cells xenografted in male BALB/c nude mouse assessed as reduction in tumor volume at 0.3 mg/kg, iv administered twice a week for 3 weeks. It is filed as functional. Set-up: scale not given: the % may be the effect or the level left.
Data set [5] in a line: Toxicity in male BALB/c nude mouse xenografted with KK-LC-1-positive human MKN-45 cells assessed as body weight loss at 3 mg/kg, iv administered twice a week for 3 weeks. The class given is organism-based. As to conditions: in vivo, 504 h.
A short description of data set [6]: Toxicity in male BALB/c nude mouse xenografted with KK-LC-1-positive human MKN-45 cells assessed as effect on liver function at 2 mg/kg, iv administered twice a week for 3 weeks. The class given is organism-based. Conditions: in vivo, 504 h.
Data set [7] relates to NUGC-4. As to the kind of experiment: Antitumor activity against KK-LC-1-positive human NUGC-4 cells xenografted in male BALB/c nude mouse assessed as decrease in Ki67 at 0.3 mg/kg, iv administered once a week for 3 weeks followed by exposure to 2 Gy gamma irradiation for 2 consecutive days once a week for 3 weeks measured by immunohistochemical staining analysis. It is filed as functional, organism-based.

Data set [8] can be described thus: Toxicity in male BALB/c nude mouse xenografted with KK-LC-1-positive human MKN-45 cells assessed as body weight loss at 2 mg/kg, iv administered twice a week for 3 weeks. As to conditions: in vivo, 504 h. It is filed as organism-based.
Data set [9] is described as follows: Toxicity in male BALB/c nude mouse xenografted with KK-LC-1-positive human NUGC-4 cells assessed as effect on body weight at 0.3 mg/kg, iv administered once a week for 3 weeks followed by exposure to 2 Gy gamma irradiation for 2 consecutive days once a week for 3 weeks. The class given is organism-based. As to conditions: in vivo, 504 h.
A short description of data set [10]: Toxicity in male BALB/c nude mouse xenografted with KK-LC-1-positive human MKN-45 cells assessed as mouse death at 3 mg/kg, iv administered twice a week for 3 weeks. The class given is organism-based. As to conditions: in vivo, 504 h.
In data set [11] the test system is NUGC-4. The data set can be described thus: Inhibition of colony formation in KK-LC-1-positive human NUGC-4 cells assessed as decrease in colonies incubated for 24 hrs followed by exposure to 2 Gy gamma irradiation by crystal violet staining based clonogenic assay. It is filed as functional, cell-based.
The nature of data set [12]: Ratio IC50 for cytotoxicity against KK-LC-1-negative human HGC-27 cells to IC50 for cytotoxicity against KK-LC-1-positive human NUGC-4 cells.
Data set [13] has as its system MKN-45. The data set can be described thus: Antitumor activity against KK-LC-1-positive human MKN-45 cells xenografted in male BALB/c nude mouse assessed as tumor volume at 0.3 mg/kg, iv administered twice a week for 3 weeks. The class given is functional.
Data set [14] is described as follows: Stability in human plasma assessed as compound remaining at 500 uM measured after 8 hrs by HPLC analysis. It is filed as ADME, cell-free. Conditions: read-out: Stability.
Data set [15] has as its system MKN-45. The data set can be described thus: Inhibition of colony formation in KK-LC-1-positive human MKN-45 cells assessed as decrease in colonies incubated for 24 hrs followed by exposure to 2 Gy gamma irradiation by crystal violet staining based clonogenic assay. It is filed as functional, cell-based.
Data set [16] can be described thus: Stability in human plasma assessed as compound remaining at 500 uM measured after 48 hrs by HPLC analysis. It is filed as ADME, cell-free. Conditions: read-out: Stability.
Data set [17] concerns MKN-45. The data set can be described thus: Cytotoxicity against KK-LC-1-positive human MKN-45 cells incubated for 72 hrs by CCK-8 assay. It is filed as functional, cell-based. Conditions: MKN-45, 72 h.
In data set [18] the test system is MKN-45. As to the kind of experiment: Antitumor activity against KK-LC-1-positive human MKN-45 cells xenografted in male BALB/c nude mouse assessed as reduction in tumor growth at 0.3 mg/kg, iv administered twice a week for 3 weeks. It is filed as functional, organism-based.
Data set [19] can be described thus: Toxicity in male BALB/c nude mouse xenografted with KK-LC-1-positive human NUGC-4 cells assessed as median survival time at 0.3 mg/kg, iv administered once a week for 3 weeks. As to conditions: in vivo, 504 h. The class given is organism-based.
The nature of data set [20]: Toxicity in male BALB/c nude mouse xenografted with KK-LC-1-positive human MKN-45 cells assessed as effect on kidney function at 1 mg/kg, iv administered twice a week for 3 weeks. The class given is organism-based. As to conditions: in vivo, 504 h.
Another data set relates to HGC-27. As to the kind of experiment: Cytotoxicity against KK-LC-1-negative human HGC-27 cells incubated for 72 hrs by CCK-8 assay. The class given is functional, cell-based. Conditions: HGC-27, 72 h. In general terms: Tetrazolium assays rely on reduction of a dye to a coloured formazan, in cell work by metabolically active cells.

For orientation: IC50 means the midpoint of a concentration-inhibition curve. Regarding `CC[C@H](C)[C@@H]([C@@H](CC(=O)N1CCC[C@H]1[C@H](OC)[C@@H](C)C(=O)N[C@H](C)[C@@H](O)c1ccccc1)OC)N(C)C(=O)[C@@H](NC(=O)[C@@H](NC(=O)[C@H](C(C)C)N(C)C(=O)OCc1ccc(NC(=O)[C@H](CCCNC(N)=O)NC(=O)[C@@H](NC(=O)CCCCCN2C(=O)CC(SC[C@H](N)C(=O)N[C@H]3CSSC[C@@H](C(=O)O)NC(=O)[C@H]([C@@H](C)O)NC(=O)[C@H]([C@@H](C)O)NC(=O)[C@H](CC(C)C)NC(=O)[C@H](C)NC(=O)[C@H]([C@@H](C)O)NC(=O)[C@H](CC(N)=O)NC(=O)[C@H](CCCCN)NC3=O)C2=O)C(C)C)cc1)C(C)C)C(C)C` (stereo partly specified) (I: H-CCKNTALTTC-OH / II: V[Cit][PABC][NMeV]VV[Dil][Dolaproine]-X1; linker I:1-II:N via Hexanoyl(6-succinimido-3yl); disulfide I:2-I:10), the outcome with NUGC-4 [1], in the data set with NUGC-4 [7] and in the data set with MKN-45 [18] was Active. In addition, the MST in data set [2] stood at 58 days; in data set [19], 40 days. Further, the Activity in the data set on NUGC-4 [3] was 30.9%; in the data set on MKN-45 [4] it was 48.5%; in data set [5], “Toxic”; in [6], “Non-Toxic”; in data set [8] it was “Non-Toxic”; in [9] it was “Non-Toxic”. Besides, the Activity result in data set [10] is given as “Toxic”; in the data set with MKN-45 [13], 292.1 mm3; in data set [20], “Non-Toxic”. For the same compound, the inhibition entry in the data set with NUGC-4 [11] and in the data set with MKN-45 [15] was “Active” each time. For the same compound, in data set [12], the “Ratio IC50” value is 100. Besides, the remaining at 8 h, 500 µM in [14] was determined as 42.5%. The remaining at 48 h, 500 µM in [16] came out at 13.2%. In addition, the values for the IC50 with MKN-45 [17] and with HGC-27 were 5.26 nM and 786 nM, respectively.

Source of the values: ChEMBL document CHEMBL5108004, “An auristatin-based peptide-drug conjugate targeting Kita-Kyushu lung cancer antigen 1 for precision chemoradiotherapy in gastric cancer” (Eur J Med Chem, 2022).
